Test results reported in ChEMBL document CHEMBL4265970, “2'-Aryl and 4'-arylidene substituted pyrazolones: As potential α-amylase inhibitors” (Eur J Med Chem, 2018).

Key:
Alpha amylase [1] = target: T1, Alpha amylase (Homo sapiens, UniProt P0DUB6); assay: Inhibition of alpha-amylase (unknown origin) using starch as substrate preincubated for 10 mins followed by substrate addition measured after 10 mins by dinitrosalicylic acid color reagent based assay
T1 sequence (P0DUB6 whole entry): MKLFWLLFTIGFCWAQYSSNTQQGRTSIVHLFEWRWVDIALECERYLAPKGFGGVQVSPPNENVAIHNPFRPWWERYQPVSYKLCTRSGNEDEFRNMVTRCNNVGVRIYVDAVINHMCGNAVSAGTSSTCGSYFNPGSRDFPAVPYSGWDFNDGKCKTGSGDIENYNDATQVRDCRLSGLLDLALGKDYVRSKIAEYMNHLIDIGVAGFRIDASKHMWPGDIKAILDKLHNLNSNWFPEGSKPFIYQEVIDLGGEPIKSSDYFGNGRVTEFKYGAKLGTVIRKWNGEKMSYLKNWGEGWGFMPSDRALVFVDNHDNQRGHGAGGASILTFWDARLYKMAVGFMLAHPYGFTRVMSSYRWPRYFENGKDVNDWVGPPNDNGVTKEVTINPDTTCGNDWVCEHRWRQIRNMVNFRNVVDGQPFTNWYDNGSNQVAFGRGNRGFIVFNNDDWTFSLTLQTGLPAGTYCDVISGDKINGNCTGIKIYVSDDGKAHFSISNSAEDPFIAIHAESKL

Alpha amylase [2] = target: T1, Alpha amylase; assay: Mixed-type inhibition of alpha-amylase (unknown origin) using p-nitrophenylR-D-maltoside as substrate incubated for 30 mins at 1 min time interval
[3] = test system: COc1cc(/C=C2/C(=O)N(c3ccc(Cl)cc3)N=C2C)cc(OC)c1Br; assay: (§1) Mixed-type inhibition of alpha-amylase (unknown origin) assessed as Vmax for substrate using p-nitrophenylR-D-maltoside as substrate incubated for 30 mins at 1 min time interval; details: Homo sapiens
[4] = test system: CC1=NN(c2ccc(Cl)cc2)C(=O)/C1=C/c1ccc(Br)cc1; assay: as §1; details: Homo sapiens
[5] = test system: COc1cc(/C=C2/C(=O)N(c3ccc(Cl)cc3)N=C2C)ccc1OC(C)=O; assay: as §1; details: Homo sapiens
[6] = test system: COc1ccc(/C=C2/C(=O)N(c3ccc(Cl)cc3)N=C2C)cc1Br; assay: as §1; details: Homo sapiens
[7] = test system: COc1ccc(/C=C2/C(=O)N(c3ccc(Cl)cc3)N=C2C)c(Cl)c1OC; assay: as §1; details: Homo sapiens
[8] = test system: COc1cc(/C=C2/C(=O)N(c3ccc(Cl)cc3)N=C2C)c(OC)cc1Br; assay: as §1; details: Homo sapiens
[9] = test system: CC1=NN(c2ccc(Cl)cc2)C(=O)/C1=C/c1cc(Cl)cc(Cl)c1O; assay: as §1; details: Homo sapiens
[10] = test system: CC1=NN(c2ccc(Cl)cc2)C(=O)/C1=C/c1cc(F)ccc1Br; assay: as §1; details: Homo sapiens
[11] = test system: COc1cc(/C=C2/C(=O)N(c3ccc(Cl)cc3)N=C2C)cc(OC)c1Br; assay: (§2) Mixed-type inhibition of alpha-amylase (unknown origin) assessed as Km for substrate using p-nitrophenylR-D-maltoside as substrate incubated for 30 mins at 1 min time interval; details: Homo sapiens
[12] = test system: CC1=NN(c2ccc(Cl)cc2)C(=O)/C1=C/c1ccc(Br)cc1; assay: as §2; details: Homo sapiens
[13] = test system: COc1cc(/C=C2/C(=O)N(c3ccc(Cl)cc3)N=C2C)ccc1OC(C)=O; assay: as §2; details: Homo sapiens
[14] = test system: COc1ccc(/C=C2/C(=O)N(c3ccc(Cl)cc3)N=C2C)cc1Br; assay: as §2; details: Homo sapiens
[15] = test system: COc1ccc(/C=C2/C(=O)N(c3ccc(Cl)cc3)N=C2C)c(Cl)c1OC; assay: as §2; details: Homo sapiens
[16] = test system: COc1cc(/C=C2/C(=O)N(c3ccc(Cl)cc3)N=C2C)c(OC)cc1Br; assay: as §2; details: Homo sapiens
[17] = test system: CC1=NN(c2ccc(Cl)cc2)C(=O)/C1=C/c1cc(Cl)cc(Cl)c1O; assay: as §2; details: Homo sapiens
[18] = test system: CC1=NN(c2ccc(Cl)cc2)C(=O)/C1=C/c1cc(F)ccc1Br; assay: as §2; details: Homo sapiens

Compound | IC50 (Alpha amylase [1]) [µM] | Ki (Alpha amylase [2]) [µM] | also measured
COc1ccc(/C=C2/C(=O)N(c3ccc(Cl)cc3)N=C2C)c(OC)c1OC | 2.1 | – | –
COc1cc(/C=C2/C(=O)N(c3ccc(Cl)cc3)N=C2C)cc(OC)c1 | 2.21 | – | –
CC1=NN(c2ccc(Cl)cc2)C(=O)/C1=C/c1ccc([N+](=O)[O-])cc1 | 2.38 | – | –
COc1cc(/C=C2/C(=O)N(c3ccc(Cl)cc3)N=C2C)ccc1OCc1ccccc1 | 2.33 | – | –
COc1cc(/C=C2/C(=O)N(c3ccc(Cl)cc3)N=C2C)cc(OC)c1OC | 2.19 | – | –
COc1cc(/C=C2/C(=O)N(c3ccc(Cl)cc3)N=C2C)cc(OC)c1Br | 1.68 | 3.24 | –
Alpha amylase (Homo sapiens) (from UniProt P0DUB6) | – | – | Vmax [3]: 65.2 µM/min; Vmax [4]: 73.4 µM/min; Vmax [5]: 70.5 µM/min; Vmax [6]: 68.3 µM/min; Vmax [7]: 70.6 µM/min; Vmax [8]: 71.4 µM/min; Vmax [9]: 79.7 µM/min; Vmax [10]: 71.2 µM/min; Km [11]: 2.92 mM; Km [12]: 3.26 mM; Km [13]: 2.9 mM; Km [14]: 2.86 mM; Km [15]: 3.14 mM; Km [16]: 3.04 mM; Km [17]: 3.4 mM; Km [18]: 3.11 mM
COc1ccc(/C=C2/C(=O)N(c3ccc(Cl)cc3)N=C2C)c(Cl)c1OC | 1.97 | 3.54 | –
COc1cc(/C=C2/C(=O)N(c3ccc(Cl)cc3)N=C2C)ccc1OC(C)=O | 1.94 | 2.98 | –

Continued, in another order:

IC50 (Alpha amylase [1]) [µM] | Ki (Alpha amylase [2]) [µM] | Compound | also measured
2.02 | – | COc1ccccc1/C=C1/C(=O)N(c2ccc(Cl)cc2)N=C1C | –
1.86 | 3.12 | COc1cc(/C=C2/C(=O)N(c3ccc(Cl)cc3)N=C2C)c(OC)cc1Br | –
1.61 | 4.26 | CC1=NN(c2ccc(Cl)cc2)C(=O)/C1=C/c1cc(Cl)cc(Cl)c1O | –
2.16 | – | CC1=NN(c2ccc(Cl)cc2)C(=O)/C1=C/c1c[nH]c2ccccc12 | –
2.03 | – | COc1ccc(/C=C2/C(=O)N(c3ccc(Cl)cc3)N=C2C)cc1OC | –
1.93 | 3.42 | CC1=NN(c2ccc(Cl)cc2)C(=O)/C1=C/c1cc(F)ccc1Br | –
1.92 | 3.84 | COc1ccc(/C=C2/C(=O)N(c3ccc(Cl)cc3)N=C2C)cc1Br | –
2.01 | – | COc1ccc(/C=C2/C(=O)N(c3ccc(Cl)cc3)N=C2C)c(OC)c1 | –
1.92 | 3.84 | CC1=NN(c2ccc(Cl)cc2)C(=O)/C1=C/c1ccc(Br)cc1 | –
2.13 | – | COc1ccc(OC)c(/C=C2/C(=O)N(c3ccc(Cl)cc3)N=C2C)c1 | –
